Laboratory results: US20050256040A1, “Artificially designed pore-forming proteins with anti-tumor effects” (Buck Institute, priority 2004, published 2005)
Entries after “also recorded” stand apart in the source; their conditions may differ. Like-named read-outs stand apart in the source and are kept apart here.

Columns and labels:
KS1767 cells [1] = assay: Matrigel / polymeric fibronectin assay of cell viability; type: cell-based, human; details: for effect on KS1767 cell layer: regardless of the presence of matrigel
Procedure: To determine the mechanisms responsible for selective anti-tumor activity of SGP in vivo, a matrigel assay (to mimic extracellular matrix) was developed. Cell viability was determined by morphology (see Ellerby, et al. (1999) supra.; and Ellerby, et al. (1997) supra.). KS1767 cells were incubated with SGP at 1 mM in the presence or absence of matrigel or polymeric fibronectin (sFN). The fibronectin polymer was produced as previously described (see Pasqualini, et al. (1996) Nature Med. 2, 1197-1203). Briefly, cell culture medium was aspirated from adherent cells. Cells were then coated with matrigel (gently pipetted on each well to completely coat the entire cell layer), or the fibronectin polymer, and incubated at 37° C. for 10 min. SGP was added and the cells were viewed on an inverted microscope (Nikon TE 300). KS1767 cells were also exposed to doxorubicin (20 μg/well) or SGP in the presence or absense of matrigel for 24 h. Cell viability (%) was evaluated after no treatment (medium or matrigel alone), incubation with SGP or doxorubicin. Cell death was evaluated morphologically (see Ellerby, et al. (1999) supra.; and Ellerby, et al. (1997) supra.), and cell viability was compared relative to untreated controls (no matrigel) or absence of SGP.

[2] = system: H358 lung carcinoma xenografts; assay: Anti-tumor activity, H358 lung carcinoma xenografts in nude mice; type: in vivo, nude/nude Balb/c mice
Source text: (§1) Data are shown for human PC3-derived prostate carcinoma and H358 lung carcinoma. Tumor cells were implanted on the flank at the start of the experiments. Mice were divided in similar groups based on matched tumor volumes at the start of the experiment (open circles).
(§2) MDA-MB-435-, KS1767-, PC-3-, and H358-derived human tumor xenografts were established in 2-month-old female or male (according to the tumor type), nude/nude Balb/c mice (Jackson Labs, Bar Harbor, Me.) by administering […] per mouse in a 200 μl volume of serum-free Dulbecco's modified Eagle's medium into the mammary fat pad or on the flank (see Ellerby, et al. (1999) Nat. Med. 5, 1032-1038). The mice were anesthetized with Avertin as described (see Ellerby, et al. (1999) supra.). SGP was administered directly into the center of the tumor mass at a concentration of 100 μM or 1 mM given slowly in 5 μl increments, for a total volume of 40 μl. Measurements of tumors were taken by caliper under anesthesia and used to calculate tumor volume (see Ellerby, et al. (1999) supra.). Animal experimentation was reviewed and approved by the Institutional Animal Care and Use Committee.

KS1767 cells [3] = type: cell-based; details: for CC50: KS 1767 cells, read-out: LC50 at 30 min; for toxicity to mammalian cultured cells compared with SGP: Table I cell types
Procedure: All cell lines were obtained commercially. The Kaposi's sarcoma-derived cell line KS1767 and the breast carcinoma cell line MDA-MB-435 have been described previously (see, for example, Herndier, et al. (1994) Aids 8, 575-581; Reisbach, et al. (1982) Anticancer Res. 2, 257-260; and Ellerby, et al. (1999) Nat. Med. 5, 1032-1038) and were cultured in 10% fetal bovine serum/Dulbecco's modified Eagle's medium, containing antibiotics.
(§3) To evaluate the effects of SGP on cell membranes multiple human cell lines of different origins were treated (see Table I, which presents a comparison of LC50 data for SGP, SGP-L, and SGP-E on a variety of cultured human cell types).
(§4) Cell viability was determined by morphology (see Ellerby, et al. (1999) Nat. Med. 5, 1032-1038; and Ellerby, et al. (1997) J. Neurosci. 17, 6165-6178). For viability assays, KS1767 cells were incubated with the concentrations of SGP, SGP-L, SGP-E, or control peptides indicated in the figures and in Table I. Briefly, at the given time points, cell culture medium was aspirated from adherent cells. Cells were then gently washed once with PBS at 37° C. A 20-fold dilution of the dye mixture (100 μg/ml acridine orange and 100 μg/ml ethidium bromide) in PBS was then gently pipetted on the cells and viewed on an inverted microscope (Nikon TE 300). […] Percent viability was calculated relative to untreated cells.

normal skin = assay: Skin toxicity in nude mice; type: in vivo; details: 100 μM, injected sub-cutaneously or intradermally under normal skin
Procedure: 2-month-old female nude mice (Jackson Labs) were anesthetized with Avertin. 10 μl of 100 μM SGP or PBS was injected into the skin. The injected areas were monitored for 2 weeks.

[4] = system: human PC3-derived prostate carcinoma xenografts; assay: Anti-tumor activity, PC-3 prostate carcinoma xenografts in nude mice; type: in vivo, nude/nude Balb/c mice; details: PC-3 tumors, 10 weeks
Source text: as §1, §2

[5] = cited from earlier work; for ability to disrupt synthetic membranes: Matsumoto et al. 2001
[6] = Cell viability LC50, CADMEC cells; type: cell-based, human; details: human
Procedure: as §3, §4

[7] = system: human MDA-MB-435-derived breast carcinoma xenografts; assay: Anti-tumor activity, MDA-MB-435 breast carcinoma xenografts in nude mice; type: in vivo, nude/nude Balb/c mice; details: for tumor appearance: 4 weekly treatments at 40 μl/week, starting volume 100 mm^3
Procedure: as §2
In the first set of experiments, tumors were allowed to form after injection of a breast carcinoma cell line (MDA-MD-435) and then treated with local injections of SGP. […] Starting tumor volumes ranged from about 100 mm^3 to large sizes of about 600 mm^3. Tumor-bearing mice were given four weekly treatments of PBS, or 100 μM or 1 mM SGP (40 μl/treatment given in 5 μl increments). After a 4-week period without treatment, the tumor volumes were measured at 8 weeks. The average tumor volume at the end of the experiment in the SGP-treated groups was […] than the average volume seen in the PBS-treated group (FIG. 3A). There was no difference between the average tumor volumes of the 2 SGP treatment groups. Mice treated with SGP remained tumor-free for up to 4 months after tumor implantation, before being euthanized for histological evaluation. These observations indicate that both primary tumor growth (FIG. 4) and metastases were inhibited. […] By successfully treating a large number of mice and testing the effects of SGP on several different tumor xenograft models (including carcinomas, sarcomas, and melanomas), the therapeutic properties of SGP were firmly established. […] It was also evaluated whether SGP produced adverse side effects such as necrosis when injected under normal skin.
MDA-MB-435-derived breast carcinoma and KS1767-derived Kaposi sarcoma xenografts and organs were removed, fixed in Bouin solution, embedded in paraffin for preparation of tissue sections, and stained with hematoxylin and eosin (see Ellerby, et al. (1999) supra.).

[8] = Cell viability LC50, cell line not given in Table I; type: cell-based; details: for CC50: cell line cell empty (row under KS 1767), read-out: LC50 at 30 min
Procedure: as §3, §4

[9] = Cell viability LC50, HPAEC cells; type: cell-based; details: human, HPAEC (Human Pulmonary Artery Endothelial Cells)
Procedure: as §3, §4

[10] = Cell viability LC50, HUVEC cells; type: cell-based; details: human, HUVEC (Human Umbilical Cord Vascular Endothelial Cells)
Procedure: as §3, §4

[11] = Cell viability LC50, 293 cells; type: cell-based; details: human, 293 cells (human kidney cells)
Procedure: as §3, §4

[12] = system: CADMEC = Cell Applications Dermal Microvessel Endothelial Cells; assay: Cell viability LC50, CADMEC cells; type: cell-based, human; details: read-out: LC50 at 30 min
Procedure: as §3, §4

## COc1cccc2c1C(=O)c1c(O)c3c(c(O)c1C2=O)C[C@@](O)(C(=O)CO)C[C@@H]3O[C@H]1C[C@H](N)[C@H](O)[C@H](C)O1 [doxorubicin, reference compound]
KS1767 cells [1]; 20 μg/well, 24 h, in the presence of matrigel
  effect on KS1767 cell viability: decreased cell viability
KS1767 cells [1]
  effect on KS1767 cell layer: damaged the cell layer

## Ac-AAAAAAWAAAAGPNGLYLKKKLLKKLLKLLGNPGLKLYKKLLKKLLLKLGNPGLLKLYKKLLKKLLKLL-OH [SGP, small globular protein]
[2]; H358 tumors, 9 weeks
  tumor volume compared with PBS-treated tumors: smaller than control PBS-treated tumors
[2]; after 6 weekly treatments at 40 μl/week, FIG. 5C
  tumor appearance: have disappeared
KS1767 cells [3]; 3 μM, 24 h
  effect on KS1767 cells: classic morphological signs of apoptosis
KS1767 cells [3]; 10 μM, within 60 s
  effect on KS1767 cells: extremely rapid non-necrotic, non-apoptotic cell death
KS1767 cells [3]; 10 μM, within 60 min
  effect on KS1767 cells: necrosis
KS1767 cells [3]; below 5 μM, over 24-hour period, confirmed by caspase-3 activation assay
  effect on KS1767 cells: induction of apoptosis
KS1767 cells [3]; cultured cells, tumor derived and normal
  concentration affecting tumor derived cells as well as normal cells: ~3 µM
Normal skin
  skin toxicity: relatively non-toxic to normal skin
[4]
  tumor volume compared with PBS-treated tumors: smaller than control PBS-treated tumors
[5]; Lee et al. 1997
  pore size (conductance) in synthetic bilayers: 14 pS
[6]
  CC50 at 30 min: 5 µM
[7]; 100 μM
  tumor appearance: flattened and virtually disappeared
[7]; 100 μM, harvested at 8 weeks after treatment initiation
  histopathology of tumor xenografts: widespread cell death; also recorded: extensive apoptosis
[7]; 1 mM
  tumor appearance: flattened and virtually disappeared
[7]; 8 weeks
  difference between average tumor volumes of 100 μM and 1 mM groups: no difference
[7]; SGP-treated mice
  histological analysis of the major organs: no overt pathology
[7]; before being euthanized for histological evaluation
  time mice remained tumor-free after tumor implantation: up to 4 months
[7]; four weekly intratumoral treatments, 100 μM or 1 mM, 40 μl, measured at 8 weeks
  tumor volume compared with PBS-treated controls: significantly smaller; also recorded: smaller than controls
[7]; mouse, in vivo
  primary tumor growth and metastases: inhibited
  surgical examination of the tumor sites: no sign of tumor cells
[8]; human
  CC50 at 30 min: 4 µM
[9]
  CC50 at 30 min: 5 µM
[10]
  CC50 at 30 min: 7 µM
[11]
  CC50 at 30 min: 5 µM
KS1767 cells [1]; 1 mM, in the presence of matrigel
  effect on KS1767 cells: remain unaffected
KS1767 cells [1]; 1 mM, in the presence of polymeric fibronectin (sFN)
  effect on KS1767 cell viability: ineffective; also recorded: remain unaffected
KS1767 cells [1]; 1 mM, without matrigel
  effect on KS1767 cells: decreases cell viability
KS1767 cells [1]; fibronectin alone (not polymeric), control
  SGP activity in the presence of fibronectin alone: did not prevent SGP activity

## DLSLARLATARLAI [negative control peptide, reference compound]
KS1767 cells [3]; 100 μM, 60 s
  effect on KS1767 cells: unaffected
KS1767 cells [3]; 100 μM, 24 h
  effect on KS1767 cells: unaffected
KS1767 cells [3]; 100 μM, after 60 min
  effect on KS1767 cells: unaffected

## CCO [ethanol, reference compound]
KS1767 cells [1]; in the presence of polymeric fibronectin (sFN)
  effect on KS1767 cells: induced massive cell death
KS1767 cells [1]
  effect on KS1767 cell layer: damaged the cell layer

B1: SGP-E: SGP variant SEQ ID NO:3; lysines replaced by glutamic acids; negative control (peptide)
chain: AAAAAAWAAAAGNPGLELLKKLYKKLLELLGNPGLELLKKYLKKLLELLGNPGLLELLKKYLKKLLELL
KS1767 cells [3]
  CC50: 30 µM
  toxicity to mammalian cultured cells compared with SGP: substantially less toxic
[5]
  ability to disrupt synthetic membranes: diminished
[12]
  CC50: 30 µM
[8]
  CC50: 30 µM

B2: SGP-L: SGP variant SEQ ID NO:4; central all alanine helix replaced by an all leucine helix; negative control (peptide)
chain: LLLLLLWLLLLGPNGLKLYKKLLKKLLKLLGNPGLKLYKKLLKKLLLKLGNPGLLKLYKKLLKKLLKLL
KS1767 cells [3]
  CC50: 60 µM
  toxicity to mammalian cultured cells compared with SGP: substantially less toxic
[5]
  ability to disrupt synthetic membranes: diminished
[12]
  CC50: 60 µM
[8]
  CC50: 60 µM
